This passage reports DC50 and Dmax results from US20250340552A1, “COMPOUNDS, COMPOSITIONS AND METHODS OF TREATING DISORDERS” (HOTSPOT THERAPEUTICS, INC., priority 2022, published 2025).

Like-named read-outs stand apart in the source and are kept apart here.

The target in this assay is T1, Cbl-B (Homo sapiens, UniProt Q13191).
T1 construct: MSD-Based Assay for Degradation of Cbl-B in THP-1 Cells; endogenous in cells; host or cells: THP-1 (title) / Jurkat (protocol text)
Briefly: MSD-based assay for degradation of Cbl-B in THP-1 cells. The assay is classed as cell-based. In a few lines: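 Reported Dmax bins are A >70%, B 50–70%, C 30–50% and D <30%, from an electrochemiluminescence (MSD) sandwich assay of Cbl-B in cell lysates. THP-1 cells were exposed to compounds for 24 hours before lysis.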

The mark [1] stands for this setting: Cbl-B degradation, Jurkat cells seeded (heading: THP-1 cells), 24 hours incubation, MSD readout.
Setting [2] is: Cbl-B degradation, Jurkat cells seeded (heading: THP-1 cells), 24 hours incubation, MSD readout, read-out: Dmax.

T1 sequence (Q13191 whole entry): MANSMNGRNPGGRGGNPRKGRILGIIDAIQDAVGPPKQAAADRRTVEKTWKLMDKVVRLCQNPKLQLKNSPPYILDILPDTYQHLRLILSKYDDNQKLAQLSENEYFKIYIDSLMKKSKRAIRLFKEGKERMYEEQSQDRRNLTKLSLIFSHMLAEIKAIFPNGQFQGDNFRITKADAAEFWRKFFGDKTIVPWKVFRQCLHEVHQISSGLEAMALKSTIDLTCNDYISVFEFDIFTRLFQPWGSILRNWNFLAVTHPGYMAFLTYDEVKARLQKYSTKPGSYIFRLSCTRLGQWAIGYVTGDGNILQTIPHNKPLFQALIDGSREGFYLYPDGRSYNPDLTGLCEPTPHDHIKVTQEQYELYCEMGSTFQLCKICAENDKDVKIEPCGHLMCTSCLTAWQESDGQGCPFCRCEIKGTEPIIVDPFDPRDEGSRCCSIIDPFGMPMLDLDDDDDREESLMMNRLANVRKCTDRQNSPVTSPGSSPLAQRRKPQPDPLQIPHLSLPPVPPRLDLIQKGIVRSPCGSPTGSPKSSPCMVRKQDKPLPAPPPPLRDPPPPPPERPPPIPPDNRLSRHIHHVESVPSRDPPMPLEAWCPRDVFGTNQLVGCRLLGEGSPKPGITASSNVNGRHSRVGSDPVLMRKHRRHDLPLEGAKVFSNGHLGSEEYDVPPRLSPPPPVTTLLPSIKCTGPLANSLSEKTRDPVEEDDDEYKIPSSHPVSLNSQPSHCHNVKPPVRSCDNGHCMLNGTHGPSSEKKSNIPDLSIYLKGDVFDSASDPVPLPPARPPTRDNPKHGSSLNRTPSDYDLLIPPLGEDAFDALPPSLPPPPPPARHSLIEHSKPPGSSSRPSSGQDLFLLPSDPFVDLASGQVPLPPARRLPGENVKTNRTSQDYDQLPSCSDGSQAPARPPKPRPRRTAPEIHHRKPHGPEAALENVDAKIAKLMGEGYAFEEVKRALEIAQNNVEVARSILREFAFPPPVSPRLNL

With `CN(CC1CCN(Cc2cc(C(F)(F)F)c3cn(-c4cccc(C5(Cc6nncn6C)COC5)c4)c(=O)n3c2)CC1)C(=O)c1ccc(N2CCN(c3ccc4c(c3)CN([C@H]3CCC(=O)NC3=O)C4=O)CC2)cc1` [Compound 166], the DC50 under setting [1] was less than 30 nM. For the same molecule, the greatest degradation seen (Dmax) under setting [2] was more than 70%. Under setting [1], `CO[C@H]1C[C@@](c2cccc(-n3cc4c(C(F)(F)F)cc(CN5CCC(CN(C)C(=O)c6ccc(N7CCN(c8ccc9c(c8)CN([C@@H]8CCC(=O)NC8=O)C9=O)CC7)cc6)CC5)cn4c3=O)c2)(c2nncn2C)C1` [Compound 167] gave a DC50 of 1000 to 10000 nM. Under setting [2], the Dmax was less than 30%. The molecule `CO[C@H]1C[C@](c2cccc(-n3cc4c(C(F)(F)F)cc(CN5CCC(CN(C)C(=O)c6ccc(N7CCN(c8ccc9c(c8)CN([C@@H]8CCC(=O)NC8=O)C9=O)CC7)cc6)CC5)cn4c3=O)c2)(c2nncn2C)C1` [Compound 168] yielded a half-maximal degradation concentration (DC50) under setting [1] of more than 10000 nM. Further, the Dmax under setting [2] is less than 30%. Turning to `CO[C@H]1C[C@@](c2cccc(-n3cc4c(C(F)(F)F)cc(CN5CCC(CN(C)C(=O)c6ccc(N7CCN(c8ccc9c(c8)CN([C@H]8CCC(=O)NC8=O)C9=O)CC7)cc6)CC5)cn4c3=O)c2)(c2nncn2C)C1` [Compound 169], under setting [1], the half-maximal degradation concentration (DC50) lay within 30 to 300 nM. Further, the greatest degradation seen (Dmax) under setting [2] is 30 to 50%. Under setting [1], `Cn1cnnc1[C@@H](c1cccc(-n2cc3c(C(F)(F)F)cc(CN4CCC(CC(=O)N5CCC(CC6CCN(c7ccc8c(c7)CN([C@@H]7CCC(=O)NC7=O)C8=O)CC6)CC5)CC4)cn3c2=O)c1)C1CCC1` [Compound 175] had a DC50 of more than 10000 nM. This molecule returned a Dmax (THP-1) of less than 30%. For `Cn1cnnc1[C@@H](c1cccc(-n2cc3c(C(F)(F)F)cc(CN4CCC(CC(=O)N5CCC(CC6CCN(c7ccc8c(c7)CN([C@H]7CCC(=O)NC7=O)C8=O)CC6)CC5)CC4)cn3c2=O)c1)C1CCC1` [Compound 176], the DC50 under setting [1] is less than 30 nM. For the same molecule, the Dmax under setting [2] is more than 70%.

With `Cn1cnnc1[C@@H](c1cccc(-n2cc3c(C(F)(F)F)cc(CN4CCC(CC(=O)N5CCC(Cc6ccc(-c7ccc8c(c7)CN([C@@H]7CCC(=O)NC7=O)C8=O)cc6)CC5)CC4)cn3c2=O)c1)C1CCC1` [Compound 179], the half-maximal degradation concentration (DC50) under setting [1] was in the range of 300 to 1000 nM. The same molecule had a Dmax (THP-1) of 30 to 50%. For `Cn1cnnc1[C@@H](c1cccc(-n2cc3c(C(F)(F)F)cc(CN4CCC(CC(=O)N5CCC(Cc6ccc(-c7ccc8c(c7)CN([C@H]7CCC(=O)NC7=O)C8=O)cc6)CC5)CC4)cn3c2=O)c1)C1CCC1` [Compound 180], in that order: less than 30 nM and more than 70%. For `Cn1cnnc1[C@@H](c1cccc(-n2cc3c(C(F)(F)F)cc(CN4CCC(CC(=O)N5CCC(c6ccc(-c7ccc8c(c7)CN([C@@H]7CCC(=O)NC7=O)C8=O)cc6)CC5)CC4)cn3c2=O)c1)C1CCC1` [Compound 181], in that order: 300 to 1000 nM and 30 to 50%. Molecule `Cn1cnnc1[C@@H](c1cccc(-n2cc3c(C(F)(F)F)cc(CN4CCC(CC(=O)N5CCC(c6ccc(-c7ccc8c(c7)CN([C@H]7CCC(=O)NC7=O)C8=O)cc6)CC5)CC4)cn3c2=O)c1)C1CCC1` [Compound 182] returned a DC50 under setting [1] of less than 30 nM. Moreover, the maximal degradation (Dmax) under setting [2] is 30 to 50%. Consider `CN(CC1CCN(Cc2cc3c(c(C(F)(F)F)c2)CN(c2cccc([C@H](c4nncn4C)C4CCC4)c2)C3=O)CC1)C(=O)c1ccc(N2CCN(c3ccc4c(c3)CN([C@@H]3CCC(=O)NC3=O)C4=O)CC2)cc1` [Compound 183], for which the 50% degradation concentration (DC50) under setting [1] is 30 to 300 nM. The greatest degradation seen (Dmax) under setting [2] was in the range of 50 to 70%.

`CN(CC1CCN(Cc2cc3c(c(C(F)(F)F)c2)CN(c2cccc([C@H](c4nncn4C)C4CCC4)c2)C3=O)CC1)C(=O)c1ccc(N2CCN(c3ccc4c(c3)CN([C@H]3CCC(=O)NC3=O)C4=O)CC2)cc1` [Compound 184] returned a 50% degradation concentration (DC50) under setting [1] of less than 30 nM. For the same molecule, under setting [2], the Dmax was more than 70%. Molecule `Cn1cnnc1[C@@H](c1cccc(N2Cc3c(cc(CN4CCC[C@H](OCc5ccc(CC6CCN(c7ccc8c(c7)CN([C@H]7CCC(=O)NC7=O)C8=O)CC6)cc5)C4)cc3C(F)(F)F)C2=O)c1)C1CCC1` [Compound 190] showed a 50% degradation concentration (DC50) under setting [1] of 300 to 1000 nM. The Dmax under setting [2] lay in the range of 30 to 50%.

Under setting [1], `Cn1cnnc1CC1(c2cccc(-n3cc4c(C(F)(F)F)cc(CN5CCN(CCc6ccc(N7CCN(c8ccc9c(c8)CN([C@@H]8CCC(=O)NC8=O)C9=O)CC7)cc6)CC5)cn4c3=O)c2)COC1` [Compound 203] registered a half-maximal degradation concentration (DC50) of less than 30 nM. Besides, under setting [2], the Dmax is more than 70%. For `Cn1cnnc1CC1(c2cccc(-n3cc4c(C(F)(F)F)cc(CN5CCC(COCc6ccc(CN7CCN(c8ccc9c(c8)CN([C@@H]8CCC(=O)NC8=O)C9=O)CC7)cc6)CC5)cn4c3=O)c2)COC1` [Compound 215], in that order: 1000 to 10000 nM and less than 30%. Under setting [1], `Cn1cnnc1CC1(c2cccc(-n3cc4c(C(F)(F)F)cc(CN5CCC(COCc6ccc(CN7CCN(c8ccc9c(c8)CN([C@H]8CCC(=O)NC8=O)C9=O)CC7)cc6)CC5)cn4c3=O)c2)COC1` [Compound 216] showed a DC50 of less than 30 nM. Further, the Dmax under setting [2] is more than 70%. For `CO[C@H]1C[C@](c2cccc(-n3cc4c(C(F)(F)F)cc(CN5CCC(OCCOCc6ccc(CN7CCN(c8ccc9c(c8)CN([C@@H]8CCC(=O)NC8=O)C9=O)CC7)cc6)CC5)cn4c3=O)c2)(c2nncn2C)C1` [Compound 221], in that order: 300 to 1000 nM and 30 to 50%. For `CO[C@H]1C[C@](c2cccc(-n3cc4c(C(F)(F)F)cc(CN5CCC(OCCOCc6ccc(CN7CCN(c8ccc9c(c8)CN([C@H]8CCC(=O)NC8=O)C9=O)CC7)cc6)CC5)cn4c3=O)c2)(c2nncn2C)C1` [Compound 222], in that order: less than 30 nM and more than 70%. Under setting [1], `CO[C@H]1C[C@](c2cccc(-n3cc4c(C(F)(F)F)cc(CN5CCC(COCc6ccc(CN7CCN(c8ccc9c(c8)CN([C@@H]8CCC(=O)NC8=O)C9=O)CC7)cc6)CC5)cn4c3=O)c2)(c2nncn2C)C1` [Compound 223] displayed a DC50 of 30 to 300 nM. Further, the Dmax under setting [2] is 30 to 50%. `CO[C@H]1C[C@](c2cccc(-n3cc4c(C(F)(F)F)cc(CN5CCC(COCc6ccc(CN7CCN(c8ccc9c(c8)CN([C@H]8CCC(=O)NC8=O)C9=O)CC7)cc6)CC5)cn4c3=O)c2)(c2nncn2C)C1` [Compound 224] yielded a 50% degradation concentration (DC50) under setting [1] of less than 30 nM. The Dmax under setting [2] was in the range of 50 to 70%. For `Cn1cnnc1[C@@H](c1cccc(-n2cc3c(C(F)(F)F)cc(CN4CCN(CCc5ccc(C6CCN(c7ccc8c(c7)CN([C@@H]7CCC(=O)NC7=O)C8=O)CC6)cc5)CC4)cn3c2=O)c1)C1CCC1` [Compound 227], in that order: 30 to 300 nM and 50 to 70%. As to `Cn1cnnc1CC1(c2cccc(-n3cc4c(C(F)(F)F)cc(CN5CCN(CCc6ccc(C7CCN(c8ccc9c(c8)CN([C@H]8CCC(=O)NC8=O)C9=O)CC7)cc6)CC5)cn4c3=O)c2)COC1` [Compound 230], the DC50 under setting [1] was less than 30 nM.

Where the note is “THP-1”, `Cn1cnnc1[C@@H](c1cccc(-n2cc3c(C(F)(F)F)cc(CN4CCC[C@H](COCc5ccc(CN6CCN(c7ccc8c(c7)CN([C@@H]7CCC(=O)NC7=O)C8=O)CC6)cc5)C4)cn3c2=O)c1)C1CCC1` [Compound 235] registered a Dmax of 30 to 50%. For `Cn1cnnc1[C@@H](c1cccc(-n2cc3c(C(F)(F)F)cc(CN4CCC(OC(=O)N5CCC(CN6CCN(c7ccc8c(c7)CN([C@@H]7CCC(=O)NC7=O)C8=O)CC6)CC5)CC4)cn3c2=O)c1)C1CCC1` [Compound 237], the 50% degradation concentration (DC50) under setting [1] fell in the range of 30 to 300 nM. The Dmax (THP-1) was in the range of 50 to 70%.

With `Cn1cnnc1[C@@H](c1cccc(-n2cc3c(C(F)(F)F)cc(CN4CCC(OC(=O)N5CCC(CN6CCN(c7ccc8c(c7)CN([C@H]7CCC(=O)NC7=O)C8=O)CC6)CC5)CC4)cn3c2=O)c1)C1CCC1` [Compound 238], under setting [1], the half-maximal degradation concentration (DC50) was less than 30 nM. Besides, the Dmax (THP-1) was more than 70%. `CN(CC1CCN(Cc2cc(C(F)(F)F)c3cn(-c4cccc(C5(Cc6nncn6C)COC5)c4)c(=O)n3c2)CC1)C(=O)c1ccc(C2CCN(c3ccc4c(c3)CN([C@@H]3CCC(=O)NC3=O)C4=O)CC2)cc1` [Compound 241]: the DC50 under setting [1] was less than 30 nM. Further, under setting [2], the greatest degradation seen (Dmax) was in the range of 50 to 70%.

Under setting [1], `CN(CC1CCN(Cc2cc(C(F)(F)F)c3cn(-c4cccc(C5(Cc6nncn6C)COC5)c4)c(=O)n3c2)CC1)C(=O)c1ccc(C2CCN(c3ccc4c(c3)CN([C@H]3CCC(=O)NC3=O)C4=O)CC2)cc1` [Compound 242] registered a 50% degradation concentration (DC50) of less than 30 nM. Besides, the greatest degradation seen (Dmax) under setting [2] was more than 70%. For `CO[C@H]1C[C@](c2cccc(-n3cc4c(C(F)(F)F)cc(CN5CCN(CCc6ccc(N7CCN(c8ccc9c(c8)CN([C@@H]8CCC(=O)NC8=O)C9=O)CC7)cc6)CC5)cn4c3=O)c2)(c2nncn2C)C1` [Compound 251], in that order: 30 to 300 nM and more than 70%. For `CO[C@H]1C[C@](c2cccc(-n3cc4c(C(F)(F)F)cc(CN5CCN(CCc6ccc(N7CCN(c8ccc9c(c8)CN([C@H]8CCC(=O)NC8=O)C9=O)CC7)cc6)CC5)cn4c3=O)c2)(c2nncn2C)C1` [Compound 252], in that order: less than 30 nM and more than 70%.

Take `Cn1cnnc1CC1(c2cccc(-n3cc4c(C(F)(F)F)cc(CN5CCC(CC(=O)N6CCC(CN7CCN(c8ccc9c(c8)CN([C@@H]8CCC(=O)NC8=O)C9=O)CC7)CC6)CC5)cn4c3=O)c2)COC1` [Compound 255]: the half-maximal degradation concentration (DC50) under setting [1] was 30 to 300 nM. For the same molecule, the greatest degradation seen (Dmax) under setting [2] is more than 70%. Regarding `Cn1cnnc1CC1(c2cccc(-n3cc4c(C(F)(F)F)cc(CN5CCC(CC(=O)N6CCC(CN7CCN(c8ccc9c(c8)CN([C@H]8CCC(=O)NC8=O)C9=O)CC7)CC6)CC5)cn4c3=O)c2)COC1` [Compound 256], under setting [1], the DC50 was less than 30 nM. Moreover, the Dmax (THP-1) was more than 70%. Under setting [1], `Cn1cnnc1CC1(c2cccc(-n3cc4c(C(F)(F)F)cc(CN5CCC(CCN6CCC(CC7CCN(c8ccc9c(c8)CN([C@H]8CCC(=O)NC8=O)C9=O)CC7)CC6)CC5)cn4c3=O)c2)COC1` [Compound 260] registered a DC50 of 30 to 300 nM. Besides, the Dmax under setting [2] fell in the range of 30 to 50%.
